How the values were obtained:
PKC [1] = conditions: cited from earlier work
PKC [2] = target: T1, PKC; conditions: cited from earlier work
T1 construct: Ki

NCI 60 cell line screen = conditions: cited from earlier work
PKCα = PKCα (Homo sapiens, UniProt P17252); conditions: cited from earlier work
protein kinase C = conditions: (−)-enantiomer; read-out: EC50 (potency); cited from earlier work
[3] = system: differentiated human SH-SY5Y cells; assay: Neuroprotection against ASPD, MTT, SH-SY5Y cells; type: cell-based; conditions: ASPD alone
[4] = system: primary rat hippocampal neurons; assay: Neuroprotection against ASPD induced toxicity, MTT, primary neurons; type: cell-based
Procedure: (§1) Viability of cells was measured by MTT assay. MTT (3-(4,5-Dimethylthiazol-2-yl)-2,5-diphenyltetrazolium bromide) is a tetrazolium salt that is cleaved to formazan by the succinate dehydrogenase, which is only active in viable cells. After solubilization of the formazan, the amount of dye can be quantified with a microplate reader at 570 nm along with a reference of 630 nm. For MTT assay, 5×104 primary rat hippocampal neurons from 18-day-old embryonic Sprague-Dawley rat brains were plated on each well of 24-well plates coated with poly-D-lysine. After treatment, the cells were washed with 1×PBS and were incubated with 200 μl of 1 mg/ml MTT solution (Sigma, USA) at 37° C. for 2 hr. Then the MTT-solution was removed and the cells were lysed with 200 μl isopropanol containing 0.04 M HCl and 160 mM NaOH for 10 min. Finally, the reading was done at 570 nm and 630 nm. All the samples were done in triplicates and the data was represented as the percentage of control.
All studies used 50 nM ASPDs. The viability of the cells were measured by the MTT assay.

PKC-ε [5] = assay: PKC-ε mRNA by RT-PCR in primary rat hippocampal neurons; type: cell-based; conditions: controls and ASPD-treated cells
Procedure: RNA was isolated from the cells using Trizol reagent (Invitrogen, USA) following the manufacturer's protocol. Briefly, 5 μg of total RNA was reverse transcribed using oligo (dT) and Superscript III (Invitrogen, USA) at 50° C. for 1 hr. Two μl of the cDNA product was amplified using primers for PKC-ε (Forward Primer—[…], Reverse primer—[…]), and β-tubulin (Forward Primer—[…], Reverse primer—[…]) (Origene, Rockville, Md.) for 25 cycles following standard PCR protocols and 55° C. annealing temperature. The PCR amplicons were analyzed in an E-Gel (Invitrogen, USA). The gel image was documented using a Fuji Image gel scanner (FLA-9000, Fuji Film) and densitometric quantification was performed using the IMAL software (Blanchette Rockefeller Neurosciences Institute, Morgantown, W. Va.). Data were represented as normalized ratio of PKC-ε OD (Optical Density) against β-tubulin OD for three independent experiments.
Primary neurons were treated with ASPD and/or DCPLA-ME. PKC-ε mRNA was quantified by RT-PCR as described above. RNA prepared from control and treated cultured primary rat hippocampal neurons were isolated and reverse transcribed. Individual cDNA was amplified for PKC-ε and β-actin. PKC-ε expression was normalized to β-actin.

synaptophysin = assay: Synaptophysin Western Blot in primary rat hippocampal neurons; type: cell-based; conditions: ASPD
Procedure: (§2) Cells were harvested in homogenizing buffer containing 10 mM Tris-Cl (pH 7.4), 1 mM PMSF (phenylmethylsulfonyl fluoride), 1 mM EGTA, 1 mM EDTA, 50 mM NaF, and 20 μM leupeptin and were lysed by sonication. The homogenate was centrifuged at 100,000×g for 15 min at 4° C. to obtain the cytosolic fraction (supernatant) and membrane (pellet). The pellet was resuspended in the homogenizing buffer by sonication. Protein concentration was measured using the Coomassie Plus (Bradford) Protein Assay kit (Pierce, USA). Following quantification, 20 μg of protein from each sample was subjected to SDS-PAGE analysis in 4-20% gradient Tris-Glycine gel (Invitrogen, USA). The separated protein was then transferred to nitrocellulose membrane. The membrane was blocked with BSA at room temperature for 15 min and was incubated with primary antibody over night at 4° C. After the incubation, it was washed three times with TBS-T (Tris Buffered saline-Tween 20) and further incubated with alkaline phosphatase conjugated secondary antibody (Jackson Immunoresearch Laboratories, USA) at 1:10,000 dilution for 45 min. The membrane was finally washed three times with TBS-T and developed using the 1-step NBT-BCIP substrate (Pierce, USA). Western Blot was imaged in the ImageQuant RT-ECL (GE Life Sciences, Piscataway, N.J.) and densitometric quantification was performed using the IMAL software (Blanchette Rockefeller Neurosciences Institute, Morgantown, W. Va.). For translocation assays, PKC activation was represented as the percentage of total protein in the membrane (membrane/cytosol+membrane).

PKC-ε [6] = assay: PKC-ε level in primary neurons (immunofluorescence, Western Blot); type: cell-based, rat
Procedure: as §2
Cells were grown in two chambered slides (Nunc, USA) at low density. For immunofluorescence staining, the cells were washed with PBS (pH 7.4) and fixed with 4% paraformaldehyde for 4 min. Following fixation, the cells were blocked and permeabilized with 5% serum and 0.3% Triton X 100 in 1×PBS for 30 min. […] Six individual fields at 63× oil lens magnification were analyzed for the mean fluorescence intensity (MFI) in each channel. […]

[7] = system: rat primary hippocampal neurons; assay: Neurotoxic effect of Aβ1-42 assemblies, MTT viability; type: cell-based; conditions: 20 hr
Procedure: as §1
To assess the neurotoxic effect of different sized oligomers, rat primary hippocampal neurons were treated with variable concentrations of these Aβ1-42 species for 20 hr. Viability of the treated cells was compared to untreated cells using the MTT assay.

[8] = system: rat hippocampal primary neurons; assay: Synaptic marker immunofluorescence in rat hippocampal primary neurons; type: cell-based
Procedure: Cells were grown in two chambered slides (Nunc, USA) at low density. For immunofluorescence staining, the cells were washed with PBS (pH 7.4) and fixed with 4% paraformaldehyde for 4 min. Following fixation, the cells were blocked and permeabilized with 5% serum and 0.3% Triton X 100 in 1×PBS for 30 min. The cells were washed three times with 1×PBS and incubated with primary antibodies for 1 hr at 1:100 dilution. The incubation slides were then washed again three times in 1×PBS and were incubated with the FITC anti-rabbit IgG and Rhodamine anti-mouse IgG for 1 hr at 1:400 dilution. The cells were further washed and treated with DAPI (4′,6-diamidino-2′-phenylindole, dihydrochloride) (Thermo Scientific, USA) to stain the nucleus. Finally, the slides were washed and mounted in Pro Long Gold antifade mounting solution (Invitrogen, USA) and were viewed under the LSM 710 Meta confocal microscope (Zeiss) at 350 nm, 490 nm, and 540 nm excitation and 470 nm, 525 nm, and 625 nm emission for DAPI, FITC, and Rhodamine respectively. Six individual fields at 63× oil lens magnification were analyzed for the mean fluorescence intensity (MFI) in each channel. The co-localization correlation generated by the ZEN software (Zeiss).
To estimate the synaptic damage caused by the ASPDs on primary hippocampal neurons, the expression of synaptophysin (a presynaptic marker) and PSD-95 (a postsynaptic marker) was measured by immunofluorescence staining. […] Following a 20 hr incubation period, the cells were stained for nucleus, PSD-95, and synaptophysin. Expression levels were calculated as the change of percentage in mean fluorescence intensity compared to untreated cells.
Primary neurons, treated and untreated, were immunostained for MAP-2, synaptophysin, and PSD-95 to determine the synaptic integrity. […] Following a 20 hr incubation period, the cells were stained for MAP-2, PSD-95, and synaptophysin as described above.

PKC-ε [9] = assay: PKC-ε translocation to membrane in SH-SY5Y cells (Western blot); type: cell-based, human; conditions: ASPD; ADDL at 20-fold higher concentrations
Procedure: as §2
Equal amounts of proteins were loaded in each lane (20 μg) for both the cytosol and membrane fractions. Activation of PKC was calculated as the percentage of total PKC in the membrane (membrane/cytosol+membrane).

[10] = 50 nM ASPD alone (ASPD) or with 100 nM DCPLA-ME, 20 hr
[11] = 50 nM ASPD alone (ASPD) or with RA and Bryostatin-1, 20 hr

For `CCC1CC1CC1CC1CC1CC1CC1CC1CC1CC1CC1CC1CCC(=O)O` (centres unmarked) [DHA-CP6], the effective concentration (PKC [1]) is listed as 10 nM.

In the case of `CC1=C[C@]23C(=O)[C@@H](C=C(COC(=O)c4ccccc4)[C@@H](O)[C@]2(O)[C@H]1OC(=O)c1ccccc1)[C@H]1[C@@H](C[C@H]3C)C1(C)C` [Ingenol 3,20-dibenzoate], the Ki (PKC [2]) is listed as 240 nM.

For `CC1=CC[C@H](C)C(C)(C)[C@@H]1/C=C/C(C)=C/CC[C@@]1(CO)[C@H](CCCO)/C(=C(/C)C=O)CC[C@]1(C)O` [Iripallidal], the “GI50 (concentration required to inhibit growth by 50%)” value (NCI 60 cell line screen) is given as “micromolar to nanomolar range” and the Ki (PKCα) is given as 75.6 nM.

For `CCCCCCCCc1ccc2c3c(c[nH]c13)C[C@@H](CO)NC(=O)[C@H](C(C)C)N2C` [octylindolactam V, Octylindolactam V], the EC50 (protein kinase C) is listed as 29 nM.

With “ASPD: amylospheroids, Aβ1-42 assemblies retained by a 100 kDa filter” the “viability compared to the untreated cells” value [3] was 77.15±0.49%, the “viability of primary neurons” value ([4]; 50 nM ASPD alone, 20 hr) was 57.6±1.6% and the “viability (Example 25)” value ([4]; 50 nM ASPDs alone (ASPD) or with the treatment named, 24 hr) was 57.61%±1.59. The “PKC-ε transcript levels (in words)” value (PKC-ε [5]) was “did not change PKC-ε mRNA significantly”, the “decrease of synaptophysin expression by Western Blot” value (synaptophysin) was 26% and the “synaptophysin expression by Western Blot” value (synaptophysin) was 73.30%±3.319. The “PKC-ε immunofluorescence level compared to control” value (PKC-ε [6]; primary neurons, 20 hr ASPD) was 60.81±5.85%, the “Viability of primary neuron (Mean ± SEM)” value ([7]; 0.5 nM) was 95.12 ± 0.733 % of control and the “Viability of primary neuron (Mean ± SEM)” value ([7]; 1 nM) was 89.64 ± 5.99 % of control. The “Viability of primary neuron (Mean ± SEM)” value ([7]; 2 nM) was 87.75 ± 0.94 % of control, the “Viability of primary neuron (Mean ± SEM)” value ([7]; 5 nM) was 70.95 ± 1.89 % of control and the “Viability of primary neuron (Mean ± SEM)” value ([7]; 10 nM) was 68.68 ± 0.84 % of control. For the same molecule, the “Viability of primary neuron (Mean ± SEM)” value ([7]; 50 nM) was 57.55 ± 3.35 % of control, the viability of neurons ([7]; 50 nM) was 57.1±4.9% and the “Viability of primary neuron (Mean ± SEM)” value ([7]; 500 nM) was 52.94 ± 3.75 % of control. For the same molecule, the “MAP-2 expression (mean fluorescence intensity)” value [8, 10] was 40.7±6.2%, the “PSD-95 expression (mean fluorescence intensity)” value [8, 10] was 67.63±7.24% and the “synaptophysin expression (mean fluorescence intensity)” value [8, 10] was 63.3±3.8%. For the same molecule, the “Mean fluorescence intensity of PSD-95” value [8, 11] was 8.16±1.21, the “Mean fluorescence intensity of synaptophysin” value [8, 11] was 9.74±2.5 and the “decrease of PSD-95 expression” value ([8]; 50 nM ASPD, 20 hr) was 42%. For the same molecule, the “decrease in synaptophysin intensity” value ([8]; 50 nM ASPDs, 1 μM ADDLs, 20 hr) was 40%, the “synaptophysin intensity compared to the control” value ([8]; 50 nM ASPDs, 1 μM ADDLs, 20 hr) was 62.45±6.74% and the PKC-ε membrane translocation (PKC-ε [9]) was 69.98±3.27%. The “reduction of PKC-ε translocation” value (PKC-ε [9]) was 46%.

In the case of EAVSLKPT, the “effect of inhibitor peptide on neuroprotection by DCPLA-ME” value ([4]; added with DCPLA-ME, 50 nM ASPD) is reported as “blocked DCPLA-ME's protective effect” and the “effect of inhibitor on PKC-ε protection by DCPLA-ME” value (PKC-ε [6]; 5 μM inhibitor) is reported as “completely blocked”.
